In patent US11034666B2, “Anti-inflammatory and antitumor 2-oxothiazoles and 2-oxothiophenes compounds” (Avexxin AS, priority 2013, dated 2021):

Assays:
[1] = tested on: MAS98.12 xenograft; assay: Patient-derived basal-like breast cancer xenograft, long-term treatment; assay type: in vivo, mouse
Method: As described more fully below, we conducted a study in a patient-derived xenograft model of basal-like breast cancer, which is responsive to […], is highly vascularised and has a high expression of cPLA2. The mice received 30 mg Compound A/kg bw by ip. injection daily for a 7 days, then every second day for 14 more days. A group of control mice received DMSO only. Tumor volumes were measured throughout the study period.
Mouse model: MAS98.12. This model is established from a primary breast carcinoma at the Institute for Cancer Research, OUS [10]. The MR Cancer Group has previously characterised this model both with respect to metabolic profile, vascularisation, response to antiangiogenic treatment and response to PI3K inhibition. Treatment was initiated when the xenograft tumors had reached a volume of 83±51 mm3 (tumor volume=d1×d2×[…]). The majority of mice had bilateral tumors.
Mice received 30 mg/kg bw COMPOUND A in 50 μl DMSO, through intraperitoneal injection. Control groups received volume-matched, drug-free DMSO injections. Tumor volume measured with electronic callipers from day −3 until the end of the experiment (Day 19).
Arm 2: Long-term treatment One group (n=6, 11 tumors) treated with COMPOUND A daily for 7 days, then every 2nd day for the remainder of the study. Controls (n=6, 10 tumors) treated with drug-free DMSO according to the same protocol. […] Throughout the study, the tumor volume was measured every 2-3 days, and the body weight of the mice was monitored regularly.

[2] = tested on: collagen-induced arthritis (CIA) mouse model; assay: Prophylactic collagen-induced arthritis (CIA) study; assay type: in vivo, male DBA/1 mice
Method: The prophylactic effect of Compound A on CIA model in male DBA/1 mice^57 following intraperitoneal (ip) administration, treatment starting 1 hour prior to the last immunization was studied. A study comparing naïve mice (healthy, non-CIA, non-treated), vehicle-treated mice (CIA with DMSO, ip) and CIA mice treated daily with Compound A (7.5 mg/kg, ip) or MTX (0.3 mg/kg, ip) was performed. CIA developed rapidly in mice immunized with CII. In the prophylactic study, a 100% incidence of CIA was observed by day 29 in CII-immunized mice, with maximum AI of 8.55 observed at 41 days post immunization. The AI and incidence of all groups increased in a time-dependent mode from day 25 to day 41.
Separate prophylactic and therapeutic efficacy studies of COMPOUND A were performed. Methotrexate (MTX) (Jiangsu Hengrui Medicine Co, #11041411), Enbrel (Boehringer Ingelheim Pharma KG, # F39487), and vehicle (DMSO 100%, Sigma Aldrich # D2650) were administered to all groups via intraperitoneal injection once daily at a dose volume of 2 mL/kg. Observations for morbidity, mortality, injury, and the availability of food and water were conducted twice daily for all animals. Clinical observations were conducted daily during the study. Body weights were measured and recorded prior to randomization and then once daily during the study. Food consumption was measured and recorded daily. Biopsies for mid-term histology analysis were obtained on Day 13 in the prophylactic study. Necropsy examinations were performed at study termination; plasma samples were collected, organ weights were recorded
For the prophylactic and the therapeutic studies, CIA was induced in male DBA/1 mice (except naïve mice) by immunization with 0.1 mL emulsion containing an equal volume of bovine type II collagen solution (2 mg/mL) and Freuds Complete Adjuvant at the tail base. The first injection was given on Day 0 and the second injection as booster was given on Day 21 (41-43). COMPOUND A, vehicle (DMSO) and MTX (0.3 mg/kg) were administered daily, Enbrel (25 mg/kg) was administrated twice a week. For the prophylactic study, treatment started one hour before the second collagen injection and continued for 21 days except for the histology groups that were sacrificed at Day 13 ([…]). For the therapeutic study, treatment started at Day 28 and continued for 14 days.
CIA Assessment and Treatment. CIA was assessed in mice by two blinded observers to measure paw swelling with a capacity measurement method on Day 0, Day 20, Day 22, Day 25, Day 27, Day 29, Day 32, Day 34, Day 36, Day 39 and Day 41 after the first injection. The occurrence of arthritis was observed by scoring all paws for severity of erythema and swelling, using a clinical score ranging from 0 (no swelling) to 4 (severe swelling and erythema). The physical condition of the animals was observed daily. Scores and overall evaluation of the histology group arms were performed in the same way as the main groups. However, the values measured were not included in the mean value calculations of the main groups. The YLS-7B Foot Volume Measuring Instrument (Huaibei China Bio Equipment) was used to measure the foot volume of mice. The occurrence of arthritis was observed by scoring all paws for severity of erythema and swelling, using a clinical score ranging from 0 (no swelling) to 4 (severe swelling and erythema), i.e. yielding maximum arthritic index (AI) score 16 (46).
Measurement of the histopathology and clinical observations. At the end of the studies, one hind foot of each mouse was collected for histopathology. The foot including the ankle was fixed in 10% neutral formalin. The ankle joints were decalcified, dehydrated, embedded in paraffin, sectioned and stained with routine hematoxylin-eosin. The sections were studied using light microscopy (10×10 and 20×10 magnifications). Arthritis damage (histological damage score) was evaluated and scored by an investigator blinded for the treatment regimen. […]

[3] = hind paw, Compound A 7.5 mg/kg, MTX 0.3 mg/kg

CCCCCCCCc1ccc(OCC(=O)c2nc(C(=O)OC)cs2)cc1 [Compound A, Methyl 2-(2-(4-octylphenoxy)acetyl)thiazole-4-carboxylate]
tumor volume as % of the control tumors ([1]; 30 mg/kg bw ip daily for 7 days, then every second day for 14 more days, end of the study): 36% | tolerability (in words) ([1]; 30 mg/kg ip, long-term treatment): well tolerated with no overt adverse effects | body weight ([1]; 30 mg/kg ip, Day 5): 24 ± 3 g | body weight ([1]; 30 mg/kg ip, Day 19): 27 ± 3 g | maximal tumor diameter ([1]; 30 mg/kg ip, Day 19): 10.5 mm | effect on tumor growth (in words) ([1]; 30 mg/kg ip, FIG. 1): strong inhibitory effect on tumor growth | tumor volume ([1]; 30 mg/kg ip, end of the study (Day 19), control 759±401): 265±138 mm^3 | arthritic index (AI) in comparison to the CIA control group (in words) ([2]; Days 32 to 41, Compound A 7.5 mg/kg ip daily, MTX 0.3 mg/kg ip daily): significantly reduced | articular cavity and peripheral tissue inflammatory cell infiltration, histopathology vs vehicle (in words) [2, 3]: reduced | capillary and synovial hyperplasia, histopathology vs vehicle (in words) [2, 3]: reduced | cartilage damage, histopathology vs vehicle (in words) [2, 3]: no significant effect
